Measurements reported in PubChem BioAssay (NCI).
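48-hour exposure; five concentrations; linearly interpolated endpoints. GI50 is the concentration that inhibits growth by half. TGI: concentration producing complete growth inhibition.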

Legend:
Test in all cases: NCI anticancer screen, dose series, 48 h
786-0 renal = tested on: 786-0 renal
BT-549 breast = tested on: BT-549 breast
CAKI-1 renal = tested on: CAKI-1 renal
MALME-3M melanoma = tested on: MALME-3M melanoma
NCI-H522 lung = tested on: NCI-H522 lung
OVCAR-8 ovarian = tested on: OVCAR-8 ovarian
PC-3 prostate = tested on: PC-3 prostate
SK-MEL-2 melanoma = tested on: SK-MEL-2 melanoma
SNB-75 CNS = tested on: SNB-75 CNS
MDA-MB-231 breast = tested on: MDA-MB-231 breast
SNB-19 CNS = tested on: SNB-19 CNS

SMILES	TGI (786-0 renal) [µM]	TGI (BT-549 breast) [µM]	TGI (CAKI-1 renal) [µM]	TGI (MALME-3M melanoma) [µM]	TGI (NCI-H522 lung) [µM]	TGI (OVCAR-8 ovarian) [µM]	TGI (PC-3 prostate) [µM]	TGI (SK-MEL-2 melanoma) [µM]	TGI (SNB-75 CNS) [µM]	TGI (MDA-MB-231 breast) [µM]	TGI (SNB-19 CNS) [µM]	GI50 (BT-549 breast) [µM]	GI50 (CAKI-1 renal) [µM]	GI50 (MALME-3M melanoma) [µM]	GI50 (MDA-MB-231 breast) [µM]	GI50 (OVCAR-8 ovarian) [µM]	GI50 (PC-3 prostate) [µM]	GI50 (SK-MEL-2 melanoma) [µM]	GI50 (SNB-19 CNS) [µM]	GI50 (SNB-75 CNS) [µM]
Clc1ccc(-c2nnc(-c3c(Cl)c(Cl)c(Cl)c(Cl)c3-c3nc4ccccc4[nH]3)o2)cc1	> 100	> 100	> 100	> 100	> 100	> 100	> 100	> 100	> 100	–	–	–	–	–	–	–	–	–	–	–
O=c1/c(=C/c2ccc([N+](=O)[O-])o2)sc2n1[C@@H](c1ccc3c(c1)OCO3)C=C(c1cc(F)c(Cl)cc1Cl)N=2	42.1	35.1	33.6	40.5	65.6	56.4	> 100	83	37.4	50.4	60.3	–	–	–	–	–	–	–	–	–
COc1cc2c(cc1OCCCN1CCN(c3ncnc4ccccc34)CC1)N=CC1CCCN1C2=O (centres undefined)	–	0.0895	0.0574	0.0479	0.0285	> 53.6	0.0973	0.512	0.168	0.0736	11.2	0.0248	0.0191	0.0198	0.0205	0.043	0.0232	0.0646	0.041	0.0357
Nc1nc(=O)n(CC(O)CO)s1 (centres undefined)	–	–	–	> 100	–	> 100	–	> 100	> 100	–	> 100	–	–	–	–	–	–	–	–	–
N#C[S-].[Ce+3].c1cnc2c(c1)ccc1cccnc12.c1cnc2c(c1)ccc1cccnc12.c1cnc2c(c1)ccc1cccnc12	11.1	–	14.3	8.84	21.1	17.5	–	–	22.2	–	22.5	–	–	–	–	–	–	–	–	–
Fc1c(F)c(C(F)(F)F)c(F)c(F)c1N/N=C/c1cn(Cc2ccccc2)c2ccccc12	66.8	80.7	54.3	> 100	70.1	> 100	79.2	55.7	62.4	45.6	76.8	–	–	–	–	–	–	–	–	–
O=C1C[C@H](CCC(=O)OCc2ccccc2)NC(=O)C[C@H](CCC(=O)OCc2ccccc2)NC(=O)C[C@H](CCC(=O)OCc2ccccc2)N1	> 100	> 100	> 100	> 100	> 100	> 100	> 100	> 100	6.73	78.3	> 100	–	–	–	–	–	–	–	–	–
C[C@]12CCC(=O)C=C1CC[C@@H]1[C@@H]2[C@@H](O)C[C@@]2(C)[C@H]1CC[C@]2(O)C(=O)COC(=O)C1CCCC1	> 100	> 100	> 100	> 100	> 100	> 100	> 100	> 100	> 100	> 100	> 100	–	–	–	–	–	–	–	–	–
CNC(=O)Nc1ccccc1	> 100	> 100	> 100	> 100	> 100	> 100	> 100	> 100	> 100	> 100	> 100	–	–	–	–	–	–	–	–	–
CC(=O)C1=C(O)CCC1=O	–	> 100	> 100	> 100	> 100	> 100	> 100	> 100	> 100	–	> 100	–	–	–	–	–	–	–	–	–
